# Measurements reported in ChEMBL document CHEMBL3044763, “Inhibitory Activities of Rhodanine Derivatives on Plant Growth” (Biosci Biotechnol Biochem, 1996).
# Legend:
# Daucus carota [1] = experiment: Growth inhibition of Daucus carota (carrot) assessed as root growth at 5 x 10^-5 M after 7 days; type: functional
# [2] = system: Brassica rapa subsp. oleifera; experiment: Growth inhibition of Brassica rapa subsp. oleifera assessed as chlorophyll a level at 3 x 10^-4 M after 7 days; type: functional; parameters: scale not given: the % may be the effect or the level left
# [3] = Toxicity in Mus musculus ddY (mouse) assessed as mortality at 5 mg/kg, ip after 2 days; type: organism-based; parameters: dose 5 mg/kg, route intraperitoneal; conditions: in vivo
# [4] = Toxicity in Mus musculus ddY (mouse) assessed as mortality at 3 mg/kg, ip after 7 days; type: organism-based; parameters: dose 3 mg/kg, route intraperitoneal; conditions: in vivo
# [5] = Toxicity in Mus musculus ddY (mouse) assessed as mortality at 8 mg/kg, ip after 3 days; type: organism-based; parameters: dose 8 mg/kg, route intraperitoneal; conditions: in vivo
# Echinochloa esculenta = experiment: Growth inhibition of Echinochloa esculenta assessed as root growth at 5 x 10^-5 M after 7 days; type: functional
# Daucus carota [6] = experiment: Growth inhibition of Daucus carota (carrot) assessed as root growth at 3 x 10^-4 M after 7 days; type: functional
# [7] = system: Brassica rapa subsp. oleifera; experiment: Growth inhibition of Brassica rapa subsp. oleifera assessed as chlorophyll a level at 3 x 10^-5 M after 7 days; type: functional; parameters: scale not given: the % may be the effect or the level left
# [8] = Toxicity in Mus musculus ddY (mouse) assessed as mortality at 3 mg/kg, ip after 2 days; type: organism-based; parameters: dose 3 mg/kg, route intraperitoneal; conditions: in vivo
# Lactuca sativa [9] = experiment: Growth inhibition of Lactuca sativa (lettuce) assessed as root growth at 5 x 10^-5 M after 7 days; type: functional
# [10] = Toxicity in Mus musculus ddY (mouse) assessed as mortality at 3 mg/kg, ip after 6 days; type: organism-based; parameters: dose 3 mg/kg, route intraperitoneal; conditions: in vivo
# Daucus carota [11] = experiment: Growth inhibition of Daucus carota (carrot) assessed as root growth at 3 x 10^-5 M after 7 days; type: functional
# Allium tuberosum [12] = experiment: Growth inhibition of Allium tuberosum assessed as root growth at 3 x 10^-5 M after 10 days; type: functional
# [13] = system: Brassica rapa subsp. oleifera; experiment: Growth inhibition of Brassica rapa subsp. oleifera assessed as total chlorophyll level at 1 x 10^-4 M after 7 days; type: functional; parameters: scale not given: the % may be the effect or the level left
# Allium tuberosum [14] = experiment: Growth inhibition of Allium tuberosum assessed as root growth at 1 x 10^-4 M after 10 days; type: functional
# Sesamum indicum = experiment: Growth inhibition of Sesamum indicum (sesame) assessed as root growth at 3 x 10^-5 M after 7 days; type: functional
# [15] = system: Brassica rapa subsp. oleifera; experiment: Growth inhibition of Brassica rapa subsp. oleifera assessed as root growth at 3 x 10^-5 M after 7 days; type: functional
# [16] = system: Brassica rapa subsp. oleifera; experiment: Growth inhibition of Brassica rapa subsp. oleifera assessed as root growth at 5 x 10^-5 M after 7 days; type: functional
# [17] = Toxicity in Mus musculus ddY (mouse) assessed as mortality at 6 mg/kg, ip after 6 days; type: organism-based; parameters: dose 6 mg/kg, route intraperitoneal; conditions: in vivo
# [18] = Toxicity in Mus musculus ddY (mouse) assessed as mortality at 3 mg/kg, ip after 3 days; type: organism-based; parameters: dose 3 mg/kg, route intraperitoneal; conditions: in vivo
# [19] = system: Brassica rapa subsp. oleifera; experiment: Growth inhibition of Brassica rapa subsp. oleifera assessed as chlorophyll b level at 3 x 10^-5 M after 7 days; type: functional; parameters: scale not given: the % may be the effect or the level left
# Daucus carota [20] = experiment: Growth inhibition of Daucus carota (carrot) assessed as root growth at 1 x 10^-4 M after 7 days; type: functional
# [21] = Toxicity in Mus musculus ddY (mouse) assessed as mortality at 8 mg/kg, ip after 6 days; type: organism-based; parameters: dose 8 mg/kg, route intraperitoneal; conditions: in vivo
# [22] = Toxicity in Mus musculus ddY (mouse) assessed as mortality at 6 mg/kg, ip after 2 days; type: organism-based; parameters: dose 6 mg/kg, route intraperitoneal; conditions: in vivo
# Lactuca sativa [23] = experiment: Growth inhibition of Lactuca sativa (lettuce) assessed as root growth at 1 x 10^-4 M after 7 days; type: functional
# [24] = Toxicity in Mus musculus ddY (mouse) assessed as mortality at 8 mg/kg, ip after 5 days; type: organism-based; parameters: dose 8 mg/kg, route intraperitoneal; conditions: in vivo
# [25] = system: Brassica rapa subsp. oleifera; experiment: Growth inhibition of Brassica rapa subsp. oleifera assessed as chlorophyll b level at 5 x 10^-5 M after 7 days; type: functional; parameters: scale not given: the % may be the effect or the level left
compound,measurement,setting,value
NN1C(=O)CSC1=S [AMINORHODANINE],Activity,Daucus carota [1],10.8 mm
same,Activity,[2],7.76%
same,mortality at 48 h,[3],60%
same,mortality at 168 h,[4],0%
same,mortality at 72 h,[5],100%
same,Activity,Echinochloa esculenta,11.2 mm
same,Activity,Daucus carota [6],0 mm
same,Activity,[7],11.07%
same,mortality at 48 h,[8],0%
same,Activity,Lactuca sativa [9],5.9 mm
same,mortality at 144 h,[10],0%
same,Activity,Daucus carota [11],11.2 mm
same,Activity,Allium tuberosum [12],7 mm
same,Activity,[13],11.85%
same,Activity,Allium tuberosum [14],5.1 mm
same,Activity,Sesamum indicum,9.5 mm
same,Root length,[15],30.8 mm
same,Root length,[16],26.8 mm
same,mortality at 144 h,[17],60%
same,mortality at 72 h,[18],0%
same,Activity,[19],4.78%
same,Activity,Daucus carota [20],2.4 mm
same,mortality at 144 h,[21],100%
same,mortality at 48 h,[22],60%
same,Activity,Lactuca sativa [23],3.2 mm
same,mortality at 120 h,[24],100%
same,Activity,[25],4.36%
